System: rat aortic ring
Assay: In vitro smooth muscle relaxant activity assay (rat aortic ring assay) in the presence of Cys and L-NAME
Type: cell-based
Details: for EC50: rat aortic rings precontracted with phenylephrine (0.3 uM), read-out: Relaxation, EC50
Description: The rat aortic ring assay was utilized as a bioassay to measure the relaxant activity. The rings were precontracted with phenylephrine (0.3 uM) and subsequently compounds were added to the tissue bath in the presence of cysteine (Cys) and N^G -L-nitroarginine methyl ester (L-NAME): In vitro smooth muscle relaxant activity assay in the presence of Cys and L-NAME: […]

In the case of CCCC1O[C@@H]2C[C@H]3[C@@H]4CCC5=CC(=O)C=C[C@]5(C)[C@H]4[C@@H](O)C[C@]3(C)[C@]2(C(=O)CO)O1 (stereo partly shown) [budesonide, 16a,17-butylidenedioxyprednisolone], the “smooth muscle relaxant activity (in words)” value (rat aortic rings precontracted with phenylephrine) is reported as “did not show any effect” and the EC50 is reported as 100 µM.
CCCC1O[C@@H]2C[C@H]3[C@@H]4CCC5=CC(=O)C=C[C@]5(C)[C@H]4[C@@H](O)C[C@]3(C)[C@]2(C(=O)CO[N+](=O)[O-])O1 (stereo partly shown) [Example 2A, Budesonide-21-Nitrate ester] was tested, and the EC50 was 5 µM.
With CCCC1O[C@@H]2C[C@H]3[C@@H]4CCC5=CC(=O)C=C[C@]5(C)[C@H]4[C@@H](ON=O)C[C@]3(C)[C@]2(C(=O)CO)O1 (stereo partly shown) [Example 1, Budesonide-11-nitrite ester] the EC50 was 0.02 µM.

Source: US5792758A, “Steroid nitrite ester derivatives useful as anti-inflammatory drugs” (G. D. Searle & Co., priority 1995, dated 1998)
